Where two headings read alike, the source gives them in different places.
Tests used:
[1] = test system: MCF7 (NET 0); assay: in vitro; format: cell-based, human
[2] = test system: SK-N-BE(2c) (NET ++++); assay: cells; format: cell-based
[3] = test system: SK—N-BE(2c) (high NET); assay: Glutathione depletion in vitro, SK-N-BE(2c); format: cell-based
Experimental: The NB cell line SK—N-BE(2c) (high net) was treated with MIBG, MIBG-disulfide dimer (MIGB-S—S-MIBG), chloromethyl-MIBG (cmMIBG), and BSO. For comparison, the human breast cancer line MCF7 (no NET) was treated with chloromethyl-MIBG and BSO. At specific times, intracellular glutathione in drug-treated cells was determined relative to that in untreated cells (control).
SK—N-BE(2c) (high NET) cells were treated with a single concentration of chloromethyl-MIBG (25 μM at t=0). Glutathione concentrations in treated and untreated cells were measured at t=0.5, 1, 2, 3 and 4 hrs. Glutathione levels in drug-treated cells progressively fell, with a concentration 50% that of control at t 4 hrs (FIG. 10B).
Cells were exposed to 5 μM chloromethyl-MIBG (cmMIBG), 25 μM BSO and a combination of 5 μM chloromethyl-MIBG+25 μM BSO (both) for 7 hrs. Compared to controls, chloromethyl-MIBG alone depleted glutathione by about 30% in SK—N—Be(2c) cells and 8% in MCF7. BSO, as expected, depleted MCF7 and SK—N—Be(2c) by similar amounts (42 and 54% of controls, respectively). In combination studies, chloromethyl-MIBG+BSO depleted levels by about 85% in the SK—N—Be(2c) cells and had much less effect on the MCF7 cells with glutathione reduced by 49% relative to controls.

[4] = in vitro; format: cell-based, human; conditions: human; for IC50 at 24 h: 24 hr assay
[5] = (101×C3H)F1 male mice, cited from earlier work
[6] = test system: SK-N-SH (NET ++); assay: Cytotoxicity, MTT assay, SK-N-SH; format: cell-based; conditions: Homo sapiens, SK-N-SH
[7] = target: T1, NET (Homo sapiens, UniProt P23975); assay: NET competitive binding assay ([125I]MIBG displacement, SK-N-SH cells); conditions: 5 μM test compound, 2 hr incubation
T1 construct: endogenous in cells; host or cells: SK-N-SH neuroblastoma cells
T1 sequence (P23975 whole entry): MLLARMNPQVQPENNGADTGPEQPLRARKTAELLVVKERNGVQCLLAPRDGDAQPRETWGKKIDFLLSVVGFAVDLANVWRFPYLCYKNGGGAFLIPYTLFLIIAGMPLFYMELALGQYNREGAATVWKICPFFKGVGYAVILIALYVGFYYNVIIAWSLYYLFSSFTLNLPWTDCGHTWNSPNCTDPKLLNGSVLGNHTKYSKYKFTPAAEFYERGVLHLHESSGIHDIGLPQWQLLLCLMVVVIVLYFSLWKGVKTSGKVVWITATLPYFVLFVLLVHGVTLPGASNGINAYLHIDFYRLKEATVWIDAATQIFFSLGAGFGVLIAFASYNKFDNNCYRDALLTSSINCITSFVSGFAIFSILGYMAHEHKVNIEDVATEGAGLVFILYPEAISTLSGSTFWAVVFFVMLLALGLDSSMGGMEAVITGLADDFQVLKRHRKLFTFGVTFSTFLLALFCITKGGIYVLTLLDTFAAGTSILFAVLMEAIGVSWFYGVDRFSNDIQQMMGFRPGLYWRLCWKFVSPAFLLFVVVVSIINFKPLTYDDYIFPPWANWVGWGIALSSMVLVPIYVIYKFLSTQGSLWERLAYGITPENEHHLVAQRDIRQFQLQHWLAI
Experimental: An assay to assess binding of various MIBG-analogs to the NET was performed by published methods (Vaidynathan et al, Nucl. Med. Commun. 25:947-955 (2004), Vaidynathan et al, Bioorg. Med. Chem. 12:1649-1656 (2004), Vaidynathan et al, Bioconjugate Chem. 12:798-806 (2001), Vaidynathan et al, Eur. J. Nucl. Med. Mol. Imaging 31:1362-1370 (2004)). In brief, neuroblastoma SK—N—SH cells (moderate levels of NET) were treated with [^125I]MIBG and with increasing concentrations of unlabeled MIBG or MIBG-analogs. At the end of a 2 hr incubation and appropriate work-up, the cell-bound radioactivity was counted. Total cell-bound radioactivity minus non-specific cell-bound radioactivity gave a value for specific binding which was plotted in FIG. 9 against the concentration of test compounds. At 5 μM, cold MIBG displaced “100%” of the labeled-MIBG (i.e., “zero” cell-bound radioactivity). At 5 μM, chloromethyl-MIBG displaced 83%; the disulfide MIBG-SS-ethyl and the ester MIBG-phenylbutyrate displaced 50-55%; and hydroxymethyl-MIBG displaced 27%.

[8] = 48 hr assay (24 h exposure + 24 h recovery), Table 3, read-out: Cytotoxicity IC50
[9] = single agent, 1% DMSO, read-out: Cytotoxicity IC50

N=C(N)NCc1ccc(CSC[C@H](NC(=O)CC[C@H](N)C(=O)O)C(=O)NCC(=O)O)c(I)c1 [MIBG-S-Glutathione]
IC50 [1]: > 1000 µM | IC50 [2]: 390 µM

CCSSCc1ccc(CNC(=N)N)cc1I [MIBG-SS-ethyl]
IC50 [1, 8]: 24.2 ± 7.21 µM | IC50 [2, 8]: 27.4 ± 4.09 µM

N=C(N)NCc1ccc(CSSCc2ccc(CNC(=N)N)cc2I)c(I)c1 [MIBG-disulfide dimer]
effect on glutathione levels ([3]; 5 μM): a transient loss of glutathione was observed | time for glutathione to return to pre-treatment levels ([3]; 5 μM): ≤ 8 h | effect on glutathione levels and cell viability ([3]; higher concentrations (25 and 100 microM), up to 8 hrs): extensive loss of glutathione and cell viability with no recovery

N[C@@H](Cc1ccc(N(CCCl)CCCl)cc1)C(=O)O [Melphalan]
IC50 at 24 h ([4]; + 5 μM MIBG, read-out: Cytotoxicity IC50 of melphalan): 386 ± 181 µM | IC50 at 24 h ([4]; + 5 μM cmMIBG (Table 2D), read-out: Cytotoxicity IC50 of melphalan): 276 ± 28 µM | IC50 at 24 h [4, 9]: 250 ± 112 µM | IC50 at 48 h [4, 8]: 126 ± 28 µM | IC50 at 48 h ([4]; 48 hr assay, + 1 μM cmMIBG added at same time, read-out: Cytotoxicity IC50 of melphalan): 127 ± 17 µM | IC50 at 48 h ([4]; 48 hr assay, + 5 μM cmMIBG added at same time, read-out: Cytotoxicity IC50 of melphalan): 75 ± 25 µM | IC50 at 48 h ([4]; 48 hr assay, cells treated with 1 μM cmMIBG for 3 hrs, then melphalan added, read-out: Cytotoxicity IC50 of melphalan): 60 ± 7 µM | IC50 at 48 h ([4]; 48 hr assay, cells treated with 5 μM cmMIBG for 3 hrs, then melphalan added, read-out: Cytotoxicity IC50 of melphalan): 43 ± 11 µM | IC50 at 48 h ([4]; 48 hr assay, single agent, Table 4, read-out: Cytotoxicity IC50): 126 ± 28 µM | IC50 ([2]; SK-N-BE(2)-C, 24 h, read-out: Cytotoxicity IC50, 24 hr assay, single agent, 1% DMSO): 36.2 ± 5.2 µM | IC50 ([2]; SK-N-BE(2)-C, 24 h, read-out: Cytotoxicity IC50 of melphalan, 24 hr assay, + 5 μM MIBG): 43.5 ± 7 µM | IC50 ([2]; SK-N-BE(2)-C, 24 h, read-out: Cytotoxicity IC50 of melphalan, 24 hr assay, + 5 μM cmMIBG (Table 2D)): 11.3 ± 5.4 µM | IC50 ([2]; SK-N-BE(2)-C, 24 h, read-out: Cytotoxicity IC50 of melphalan, competition experiment, 24 hr assay, + 5 μM cmMIBG + 5 μM MIBG): 22.9 µM | IC50 ([2]; SK-N-BE(2)-C, 24 h, read-out: Cytotoxicity IC50 of melphalan, competition experiment, 24 hr assay, + 5 μM cmMIBG plus vehicle (no MIBG)): 8.1 µM | IC50 ([2]; SK-N-BE(2)-C, 48 h, read-out: Cytotoxicity IC50, 48 hr assay, single agent, Table 4): 25.8 ± 3.5 µM | IC50 ([2]; SK-N-BE(2)-C, 48 h, read-out: Cytotoxicity IC50 of melphalan, 48 hr assay, + 1 μM cmMIBG added at same time): 13.9 ± 4.7 µM | IC50 ([2]; SK-N-BE(2)-C, 48 h, read-out: Cytotoxicity IC50 of melphalan, 48 hr assay, + 5 μM cmMIBG added at same time): 7.3 ± 1.3 µM | IC50 ([2]; SK-N-BE(2)-C, read-out: Cytotoxicity IC50, 48 hr assay (24 h exposure + 24 h recovery), Table 3): 25.8 ± 3.54 µM | IC50 ([2]; SK-N-BE(2)-C, read-out: Cytotoxicity IC50 of melphalan, 48 hr assay, cells treated with 1 μM cmMIBG for 3 hrs, then melphalan added): 14 ± 3.7 µM | IC50 ([2]; SK-N-BE(2)-C, read-out: Cytotoxicity IC50 of melphalan, 48 hr assay, cells treated with 5 μM cmMIBG for 3 hrs, then melphalan added): 10.2 ± 0.9 µM | death rate ([5]; 20 mg/kg single injection i.p., by one week): 100% | MTD ([5]; single injection, i.p.): 10 to 15 mg/kg | IC50 ([6]; 48 h, read-out: Cytotoxicity IC50, 48 hr assay, single agent, Table 4): 54.1 ± 13.8 µM | IC50 ([6]; 48 h, read-out: Cytotoxicity IC50 of melphalan, 48 hr assay, + 1 μM cmMIBG added at same time): 36.7 ± 18.7 µM | IC50 ([6]; 48 h, read-out: Cytotoxicity IC50 of melphalan, 48 hr assay, + 5 μM cmMIBG added at same time): 29.9 ± 10.6 µM | IC50 ([6]; read-out: Cytotoxicity IC50, 48 hr assay (24 h exposure + 24 h recovery), Table 3): 54.1 ± 13.8 µM | IC50 ([6]; read-out: Cytotoxicity IC50 of melphalan, 48 hr assay, cells treated with 1 μM cmMIBG for 3 hrs, then melphalan added): 29.8 ± 4.8 µM | IC50 ([6]; read-out: Cytotoxicity IC50 of melphalan, 48 hr assay, cells treated with 5 μM cmMIBG for 3 hrs, then melphalan added): 38.4 ± 7.7 µM

ClCc1ccccc1 [chloromethyl-benzene, benzylchloride]
IC50 at 24 h [4, 9]: 390 ± 77 µM | IC50 ([2]; 24 hr assay, single agent, 1% DMSO, read-out: Cytotoxicity IC50): 172 ± 31 µM

N=C(N)NCc1ccc(CO)c(I)c1 [hydroxymethyl-MIBG]
displacement of [125I]MIBG (specific cell-bound radioactivity) [7]: 27%

— patent publication US20100104628A1, “METHOD OF TREATING NEUROBLASTOMA” (priority 2007, published 2010)
